Experimental data published in US5326902A, “Oxyalkyne compounds, pharmaceutical compositions containing them and processes for preparing such compounds and compositions” (Gruenenthal GmbH, priority 1992, dated 1994).

How the values were obtained:
5-lipoxygenase = test: Inhibition of 5-lipoxygenase in Rat Blood After Oral Administration (ex vivo iLTB4-formation); details: 21.5 mg/kg oral, male Wistar rats, one hour after administration
Procedure: The bioavailability of the compounds of formula I as 5-lipoxygenase inhibitors was characterized by means of an ex vivo biochemical assay method described by Tateson et al. in Brit. J. Pharmacol. 94, 528 (1988): A compound of formula I was orally administered to male rats (Wistar strain) at a dose of 21.5 mg/kg. After lethal CO2 -narcosis one hour after administration, the rats were bled by heart puncture with added heparin as an anticoagulant. Aliquots of the whole blood were incubated at 37° C. for 30 minutes in a water bath with calcium ionophore A 23 187 at an end concentration of 15 μg/ml. At the end of the incubation, the samples were centrifuged, and the concentration of the immunoreactive LTB4 (iLTB4) in aliquots of cell-free plasma was determined by radioimmunoassay (3H-LTB4 -RIA, Amersham). To enable calculation of the inhibition in percent of ex vivo iLTB4 -formation in whole rat blood treated with a compound according to the invention, rats orally treated with an appropriate vehicle solution were included in all experiments, and aliquots of their blood were run in parallel and were processed in the same way as described. The average iLTB4 -content of the plasma of the vehicletreated rats served as a 100% value. The activity in percent of the ex vivo iLTB4 -formation after oral administration of a compound according to the invention was calculated by dividing the average value of the iLTB4 -contents in ng iLTB4 /ml of the group treated with a compound according to the invention by the average value of the iLTB4 -contents in ng iLTB4 /ml of the vehicle treated group and subsequent multiplication by a factor of 100. The respective inhibition in percent was calculated by subtracting the activity in percent from 100.

12-lipoxygenase [1] = biological target: T1, 12-lipoxygenase (Homo sapiens, UniProt P18054); test: Inhibition of 12-HETE- and 5S,12S-DiHETE-synthesis induced by FMLP/merthiolate of human polymorphonuclear leukocytes and thrombocytes; format: cell-based; details: coincubation of human granulocytes and thrombocytes, read-out: IC50-value of the inhibitory action on 12-lipoxygenase
T1 sequence (P18054 1-663): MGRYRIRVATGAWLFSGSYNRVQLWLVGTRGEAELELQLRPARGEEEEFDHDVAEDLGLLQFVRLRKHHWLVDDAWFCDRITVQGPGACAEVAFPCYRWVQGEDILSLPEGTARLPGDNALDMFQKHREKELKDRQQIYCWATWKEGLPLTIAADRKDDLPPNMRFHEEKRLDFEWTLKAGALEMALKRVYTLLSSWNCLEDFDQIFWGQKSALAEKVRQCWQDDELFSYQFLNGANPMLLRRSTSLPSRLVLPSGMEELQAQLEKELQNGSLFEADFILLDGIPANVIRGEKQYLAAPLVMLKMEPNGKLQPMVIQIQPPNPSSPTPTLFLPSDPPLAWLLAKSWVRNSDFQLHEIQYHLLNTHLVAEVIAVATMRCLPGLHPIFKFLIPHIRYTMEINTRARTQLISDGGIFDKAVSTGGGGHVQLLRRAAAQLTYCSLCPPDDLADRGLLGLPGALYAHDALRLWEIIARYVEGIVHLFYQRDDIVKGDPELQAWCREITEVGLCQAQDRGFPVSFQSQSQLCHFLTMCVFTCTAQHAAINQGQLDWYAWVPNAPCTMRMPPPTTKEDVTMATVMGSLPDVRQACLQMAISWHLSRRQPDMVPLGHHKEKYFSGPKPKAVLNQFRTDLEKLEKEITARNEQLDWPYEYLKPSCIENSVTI
Procedure: Human granulocytes were isolated by dextran sedimentation and a Percoll gradient method and suspended in HBSS (Hanks buffered saline solution) at 1×10^7 cells/ml. The cells were incubated in the presence of a compound according to the invention or a solvent (ethanol and/or dimethyl sulfoxide) at 37° C. for 2 minutes, then with merthiolate (sodium ethylmercurithiosalicylate; 40 μM) for 2 minutes and thereafter with FMLP (formyl-methionyl-leucylphenylalanine; 10^-7 M) for 15 minutes. After solid phase extraction, the metabolites of arachidonic acid 5-HETE, LTB4, 6-trans-LTB4 -isomers, 20-OH-LTB4 and 20-COOH-LTB4 were identified by RP-HPLC (M. Haurand and L. Flohe in Biochem. Pharmacol. 38, 2129 to 2137 (1989)).
Coincubations of human granulocytes and thrombocytes were carried out and investigated for inhibition of leukotriene-synthesis induced by FMLP/merthiolate. 12-HETE and 5S, 12S-DiHETE were additionally included into the evaluation. The IC50 -value of the inhibitory action on 12-lipoxygenase was 5 μmolar when the compound prepared according to Example 1 was used.

[2] = system: bronchoconstriction elicited by ovalbumin; test: Allergen-induced bronchoconstriction in guinea pigs (Konzett-Rossler); format: in vivo, guinea pig; details: Cavia porcellus, 1 h; oral, 60 minutes before ovalbumin (0.2 mg/kg intravenous); passively sensitized guinea pigs; read-out: ED40-Value (40% average inhibition of the bronchoconstriction elicited by ovalbumin)
Procedure: The anti-asthmatic effect of compounds according to the invention was tested in anesthetized and ventilated guinea pigs. To induce an asthmatic reaction, the animals were passively sensitized by a single intraperitoneal injection of anti-ovalbumin serum. After 48 hours, the asthmatic reaction was elicited by intravenous challenge with 0.2 mg/kg of ovalbumin. The immediately resulting bronchoconstriction was measured as an increase in intratracheal pressure. Effects caused by histamine, serotonin and sympathic counterreaction were eliminated by intravenous pretreatment with 2.15 mg/kg of mepyramine, 46.4 μg/kg of propranolol, 4.64 mg/kg of atropine and 1 mg/kg of methysergide, all administered 5 minutes before challenge. Compounds according to the invention were administered orally 60 minutes before the administration of ovalbumin. The following […] for the inhibition of the bronchoconstriction elicited by ovalbumin, i.e. the effective doses causing a 40% average inhibition of the bronchoconstriction, were determined: […]

12-lipoxygenase [3] = biological target: T1, 12-lipoxygenase; test: Inhibition of 12-lipoxygenase in human blood; format: cell-based; set-up: 3 ml aliquots of human whole blood treated with heparin; from tissue; host or cells: human whole blood (heparinized); details: human whole blood; calcium ionophore A 23 187 15 μg/ml; 37° C., 30 minutes; 12-HETE by HPLC
Procedure: 3 ml aliquots of human whole blood treated with heparin were incubated either with a compound according to the invention or with dimethyl sulfoxide at 37° C. for 5 minutes. Then 12-lipoxygenase was activated by addition of calcium ionophore A 23 187 (15 μg/ml blood). After incubation at 37° C. for 30 minutes and centrifugation, cell-free plasma was obtained. Plasma protein was precipitated by addition of 2 ml of ethanol per ml of plasma and then separated by centrifugation. After adjusting the ethanol content in the supernatant with water to 10% by volume, the 12-lipoxygenase product 12-HETE was enriched by solid phase extraction using an octadecyl silica column. The methanolic eluate was evaporated to dryness, diluted in 40% by volume of methanol, and the 12-HETE-content was determined by HPLC. The IC50 -values of the compounds of the invention prepared according to Examples 1, 8 and 16 were 2, 4 and 3 μmolar, respectively.

IC50 (12-lipoxygenase [1]): 5 µM | IC50 (12-lipoxygenase [3]): 2 µM
SMILES: CC(=O)N(O)Cc1ccc(C(O)C#Cc2ccccc2)cc1 (racemic) [Example 1, N-Hydroxy-N-[4-[1-hydroxy-3-phenyl-prop-2-yn-1-yl]benzyl]acetamide]
Inhibition [%] of ex vivo iLTB4-formation (5-lipoxygenase): 93% | ED40 [2]: 17 mg/kg
